The source made the active and inactive calls. The calls are words filed in the database; no cut-off is given here.
Columns and labels:
C6 [1] = experiment: Antiproliferative activity against rat C6 cells after 48 hrs by MTT assay; format: functional, cell-based; details: C6, 48 h
C6 [2] = experiment: Antiproliferative activity against rat C6 cells at 0.1 to 10 uM after 48 hrs by neutral red incorporation assay; format: functional, cell-based
[3] = Cytotoxicity against mouse astrocytes assessed as decrease in cell viability at 1 to 100 uM after 48 hrs by neutral red incorporation assay; format: cell-based; details: astrocyte
[4] = Cytotoxicity against mouse astrocytes assessed as decrease in cell viability at 1 to 100 uM after 48 hrs by Hoechst 33342 staining; format: cell-based; details: astrocyte
[5] = Cytotoxicity against mouse astrocytes assessed as decrease in cell viability at 1 to 100 uM after 48 hrs by propidium iodide incorporation assay; format: cell-based; details: astrocyte
SF-295 = experiment: Antiproliferative activity against human SF295 cells at 10 uM after 24 hrs by SRB assay; format: functional, cell-based
SNB-75 = experiment: Antiproliferative activity against human SNB75 cells at 10 uM after 24 hrs by SRB assay; format: functional, cell-based
C6 [6] = experiment: Antiproliferative activity against rat C6 cells at 100 uM after 48 hrs by neutral red incorporation assay; format: functional, cell-based
[7] = Cytotoxicity against mouse astrocytes assessed as decrease in cell viability at 10 uM after 48 hrs by neutral red incorporation assay; format: cell-based; details: astrocyte
[8] = Cytotoxicity against mouse astrocytes assessed as decrease in cell viability after 48 hrs by propidium iodide incorporation assay; format: cell-based; details: astrocyte
[9] = Cytotoxicity against mouse astrocytes assessed as decrease in cell viability after 48 hrs by Hoechst 33342 staining; format: cell-based; details: astrocyte
[10] = Cytotoxicity against mouse astrocytes assessed as decrease in cell viability at 1 to 10 uM after 48 hrs by neutral red incorporation assay; format: cell-based; details: astrocyte
[11] = Cytotoxicity against mouse astrocytes assessed as decrease in cell viability at 1 to 10 uM after 48 hrs by propidium iodide incorporation assay; format: cell-based; details: astrocyte
[12] = Cytotoxicity against mouse astrocytes assessed as decrease in cell viability at 0.1 uM after 48 hrs by neutral red incorporation assay; format: cell-based; details: astrocyte
[13] = Cytotoxicity against mouse astrocytes assessed as decrease in cell viability at 0.1 uM after 48 hrs by propidium iodide incorporation assay; format: cell-based; details: astrocyte
[14] = Cytotoxicity against mouse astrocytes assessed as decrease in cell viability at 0.1 uM after 48 hrs by Hoechst 33342 staining; format: cell-based; details: astrocyte

SMILES | EC50 (C6 [1]) [µM] | other results
O=[P@@]1(c2cccc(F)c2)O[C@H](COCc2ccccc2)[C@@H](OCc2ccccc2)[C@H](OCc2ccccc2)[C@H]1O | > 25 | –
COc1cccc([P@]2(=O)O[C@H](COCc3ccccc3)[C@@H](OCc3ccccc3)[C@H](OCc3ccccc3)[C@@H]2O)c1 | > 25 | –
COc1ccc([P@@]2(=O)O[C@H](COCc3ccccc3)[C@@H](OCc3ccccc3)[C@H](OCc3ccccc3)[C@@H]2O)cc1 | 15 | –
O=[P@]1(c2ccccc2)O[C@H](COCc2ccccc2)[C@@H](OCc2ccccc2)[C@H](OCc2ccccc2)[C@@H]1O (single isomer, unassigned) | 12 | –
COc1ccc([P@]2(=O)O[C@H](COCc3ccccc3)[C@@H](OCc3ccccc3)[C@H](OCc3ccccc3)[C@@H]2O)cc1 | 2.9 | –
Cc1cccc([P@@]2(=O)O[C@H](COCc3ccccc3)[C@@H](OCc3ccccc3)[C@H](OCc3ccccc3)[C@@H]2O)c1 | > 25 | –
N[C@@H]1[C@@H](OCc2ccccc2)[C@H](OCc2ccccc2)[C@@H](COCc2ccccc2)O[P@@]1(=O)c1ccccc1 | 16.3 | –
O=NN(CCCl)C(=O)NCCCl [CARMUSTINE] | – | Activity (C6 [2]): Active; Activity [3]: Non-toxic; Activity [4]: Non-toxic; Activity [5]: Non-toxic
COc1cccc([P@]2(=O)O[C@H](COCc3ccccc3)[C@@H](OCc3ccccc3)[C@H](OCc3ccccc3)[C@H]2O)c1 | > 25 | –
Cc1ccc([P@@]2(=O)O[C@H](COCc3ccccc3)[C@@H](OCc3ccccc3)[C@H](OCc3ccccc3)[C@H]2O)cc1 | > 25 | –
O=[P@@]1(c2cccc(C(F)(F)F)c2)O[C@H](COCc2ccccc2)[C@@H](OCc2ccccc2)[C@H](OCc2ccccc2)[C@H]1O | > 25 | –
O=[P@]1(c2cccc(C(F)(F)F)c2)O[C@H](COCc2ccccc2)[C@@H](OCc2ccccc2)[C@H](OCc2ccccc2)[C@H]1O | > 25 | –
Cn1nnc2c(C(N)=O)ncn2c1=O [TEMOZOLOMIDE] | – | growth inhibition (GI) (SF-295): Active; growth inhibition (GI) (SNB-75): Active; Activity (C6 [6]): Active; Activity [3]: Non-toxic; Activity [4]: Non-toxic; Activity [5]: Non-toxic
O=[P@@]1(c2ccccc2)O[C@H](COCc2ccccc2)[C@@H](OCc2ccccc2)[C@H](OCc2ccccc2)[C@H]1NCc1ccccc1 | 2.68 | –
[N-]=[N+]=N[C@@H]1[C@@H](OCc2ccccc2)[C@H](OCc2ccccc2)[C@@H](COCc2ccccc2)O[P@@]1(=O)c1ccccc1 | 16.7 | –
Cc1cccc([P@@]2(=O)O[C@H](COCc3ccccc3)[C@@H](OCc3ccccc3)[C@H](OCc3ccccc3)[C@H]2O)c1 | > 25 | –
N[C@H]1[C@@H](OCc2ccccc2)[C@H](OCc2ccccc2)[C@@H](COCc2ccccc2)O[P@@]1(=O)c1ccccc1 | 18.7 | –
COc1cccc([P@@]2(=O)O[C@H](COCc3ccccc3)[C@@H](OCc3ccccc3)[C@H](OCc3ccccc3)[C@H]2O)c1 | > 25 | –
COc1ccc([P@@]2(=O)O[C@H](COCc3ccccc3)[C@@H](OCc3ccccc3)[C@H](OCc3ccccc3)[C@H]2O)cc1 | 15 | –
Cc1cccc([P@]2(=O)O[C@H](COCc3ccccc3)[C@@H](OCc3ccccc3)[C@H](OCc3ccccc3)[C@@H]2O)c1 | > 25 | –
O=[P@]1(c2cccc(C(F)(F)F)c2)O[C@H](COCc2ccccc2)[C@@H](OCc2ccccc2)[C@H](OCc2ccccc2)[C@@H]1O | > 25 | –
O=C(O[C@@H]1[C@@H](OCc2ccccc2)[C@H](OCc2ccccc2)[C@@H](COCc2ccccc2)O[P@@]1(=O)c1ccccc1)c1ccccc1 | > 25 | –
COc1ccc([P@]2(=O)O[C@H](COCc3ccccc3)[C@@H](OCc3ccccc3)[C@H](OCc3ccccc3)[C@H]2O)cc1 | 8.4 | –

SMILES | EC50 (C6 [1]) [µM] | other results
CC(=O)O[C@@H]1[C@@H](OCc2ccccc2)[C@H](OCc2ccccc2)[C@@H](COCc2ccccc2)O[P@@]1(=O)c1ccccc1 | 11.9 | –
Cc1ccc([P@@]2(=O)O[C@H](COCc3ccccc3)[C@@H](OCc3ccccc3)[C@H](OCc3ccccc3)[C@@H]2O)cc1 | > 25 | –
O=[P@]1(c2ccccc2)C[C@@H](OCc2ccccc2)[C@H](OCc2ccccc2)[C@@H](COCc2ccccc2)O1 | 8.3 | –
CC(=O)O[C@H]1C(=O)[C@@]2(C)[C@H]([C@H](OC(=O)c3ccccc3)[C@]3(O)C[C@H](OC(=O)[C@H](O)[C@@H](NC(=O)c4ccccc4)c4ccccc4)C(C)=C1C3(C)C)[C@]1(OC(C)=O)CO[C@@H]1C[C@@H]2O [PACLITAXEL] | – | growth inhibition (GI) (SF-295): Active; growth inhibition (GI) (SNB-75): Active; Activity (C6 [2]): Active; Activity [7]: 28%; Activity [8]: Dose-dependent effect; Activity [9]: Dose-dependent effect
O=C(Nc1ccccc1)N[C@@H]1[C@@H](OCc2ccccc2)[C@H](OCc2ccccc2)[C@@H](COCc2ccccc2)O[P@@]1(=O)c1ccccc1 | 4.4 | –
[N-]=[N+]=N[C@H]1[C@@H](OCc2ccccc2)[C@H](OCc2ccccc2)[C@@H](COCc2ccccc2)O[P@@]1(=O)c1ccccc1 | > 25 | –
Cc1ccc([P@]2(=O)O[C@H](COCc3ccccc3)[C@@H](OCc3ccccc3)[C@H](OCc3ccccc3)[C@H]2O)cc1 | > 25 | –
O=[P@]1(c2cccc(F)c2)O[C@H](COCc2ccccc2)[C@@H](OCc2ccccc2)[C@H](OCc2ccccc2)[C@H]1O | > 25 | –
CC[C@]1(O)C[C@H]2CN(CCc3c([nH]c4ccccc34)[C@@](C(=O)OC)(c3cc4c(cc3OC)N(C=O)[C@H]3[C@@](O)(C(=O)OC)[C@H](OC(C)=O)[C@]5(CC)C=CCN6CC[C@]43[C@@H]65)C2)C1 [VINCRISTINE] | – | Activity (C6 [2]): Active; Activity [10]: 60%; Activity [11]: Toxic; Activity [12]: Toxic; Activity [13]: Toxic; Activity [14]: Toxic
CSC(=S)O[C@H]1[C@@H](OCc2ccccc2)[C@H](OCc2ccccc2)[C@@H](COCc2ccccc2)O[P@@]1(=O)c1ccccc1 | > 25 | –
Cc1cccc([P@]2(=O)O[C@H](COCc3ccccc3)[C@@H](OCc3ccccc3)[C@H](OCc3ccccc3)[C@H]2O)c1 | > 25 | –
COc1cccc([P@@]2(=O)O[C@H](COCc3ccccc3)[C@@H](OCc3ccccc3)[C@H](OCc3ccccc3)[C@@H]2O)c1 | > 25 | –
Cc1ccc([P@]2(=O)O[C@H](COCc3ccccc3)[C@@H](OCc3ccccc3)[C@H](OCc3ccccc3)[C@@H]2O)cc1 | > 25 | –
C=CCN[C@@H]1[C@@H](OCc2ccccc2)[C@H](OCc2ccccc2)[C@@H](COCc2ccccc2)O[P@@]1(=O)c1ccccc1 | 0.49 | –
O=C(O[C@@H]1[C@@H](OCc2ccccc2)[C@H](OCc2ccccc2)[C@@H](COCc2ccccc2)O[P@@]1(=O)c1ccccc1)C(F)(F)F | > 25 | –
O=[P@@]1(c2ccccc2)O[C@H](COCc2ccccc2)[C@@H](OCc2ccccc2)[C@H](OCc2ccccc2)[C@H]1OCc1ccccc1 | 5.3 | –
CSC(=S)O[C@@H]1[C@@H](OCc2ccccc2)[C@H](OCc2ccccc2)[C@@H](COCc2ccccc2)O[P@@]1(=O)c1ccccc1 | 14 | –
O=[P@]1(c2ccccc2)O[C@H](COCc2ccccc2)[C@@H](OCc2ccccc2)[C@H](OCc2ccccc2)[C@H]1O | 12 | –
O=[P@]1(c2cccc(F)c2)O[C@H](COCc2ccccc2)[C@@H](OCc2ccccc2)[C@H](OCc2ccccc2)[C@@H]1O | > 25 | –
O=[P@@]1(c2cccc(F)c2)O[C@H](COCc2ccccc2)[C@@H](OCc2ccccc2)[C@H](OCc2ccccc2)[C@@H]1O | > 25 | –
O=[P@@]1(c2cccc(C(F)(F)F)c2)O[C@H](COCc2ccccc2)[C@@H](OCc2ccccc2)[C@H](OCc2ccccc2)[C@@H]1O | > 25 | –
CO[C@@H]1[C@@H](OCc2ccccc2)[C@H](OCc2ccccc2)[C@@H](COCc2ccccc2)O[P@@]1(=O)c1ccccc1 | 16.6 | –

From ChEMBL document CHEMBL2029220, “Oxaphosphinanes: new therapeutic perspectives for glioblastoma” (J Med Chem, 2012)
